# Values joined by “and” are separate entries in the source; they are usually repeats but may differ in a detail not shown here. Equal values may be shown once.
# System: 743489-274-T-PDC complex spheroid growth
# Assay: Anticancer human tumor 743489-274-T-PDC patient-derived renal cell carcinoma cell line growth inhibition [AhR]
# Settings: for viability, T/C: stronger effect = lower value
# From the text: Multicellular complex tumor spheroid response to aryl hydrocarbon receptor antagonists in combination with a variety of drugs and investigational agents in selected tumor cell lines
# The current study was undertaken to assess response to aryl hydrocarbon receptor antagonists in combination with standard-of-care drugs and investigational agents in solid tumor complex spheroid models. Complex spheroids include a stromal component modeled by human endothelial cells (HUVEC) and fibroblasts modeled by human mesenchymal stem cells (MSCs). The concentration ranges selected for each drug and investigational agent were based upon clinically achievable concentrations if the clinical Cmax of the agent was known.
# Compounds. The drugs and investigational agents: BAY 2416964 (NSC825713), GNF351 (NSC835774), CH-223191 (NSC835775), CPI-455 (NSC825282), aza-TdCyd (NSC777586), decitabine (NSC127716), belinostat (NSC758774), entinostat (NSC756642), pevonedistat (NSC761192), tazemetostat (NSC777109), talazoparib (NSC765396), olaparib (NSC753686), selinexor (NSC780203), nedisertib (M3814, NSC802822), bortezomib (NSC756655), venetoclax (NSC766270), doxorubicin (NSC123127), elimusertib (BAY189344, NSC800525), ceralasertib (AZD6738, NSC777638), TAK-243 (NSC785004), alisertib (NSC759677), etoposide (NSC141540), topotecan (NSC609699), eribulin (NSC707389), gemcitabine (NSC613327), carboplatin (NSC241240), cisplatin (NSC119875), and SN-38 (NSC673596) were obtained from the National Cancer Institute (NCI) Developmental Therapeutics Program Chemical Repository (32). The FDA-approved anticancer drug set is available from the Developmental Therapeutics Program at https://dtp.cancer.gov/organization/dscb/obtaining/available plates.htm. […] The stock solutions were prepared in dimethyl sulfoxide (DMSO, Sigma-Aldrich, St. Louis, MO, cat. D2650), except for the platinum compounds which were prepared in saline (Quality Biological, Gaithersburg, MD, cat. 114-055-101), at 800-fold the tested concentration and stored at -70 degrees C prior to their use. All drugs and investigational agents were tested over a range starting from a high concentration at or near the clinical Cmax and decreasing in half-log increments. If the clinical Cmax for an agent had not been determined, the highest concentration tested was 10 microM (Table 1).
# Cell Culture. All cells were maintained in an incubator at 37 degrees C and 5% CO2 with 95% humidity. The PDC lines were cultured according to standard operating procedures established by the NCI PDMR (https://pdmr.cancer.gov). Briefly, all PDCs were thawed and cultured in Matrigel-coated flasks prepared with a working solution of 1X Ham's F-12 nutrient mix, without supplementation (Invitrogen, Waltham, MA, cat. 11765054), 100 U/mL penicillin-streptomycin (Invitrogen, cat. 15140122), and 2.5% Matrigel (Corning Inc., Corning, NY, cat. 354248) for the first three passages. All PDCs were cultured in complete DMEM/F-12 media containing advanced DMEM/F-12 (Invitrogen, cat. 12634028), 4.9% defined fetal bovine serum, heat inactivated (HyClone Laboratories Inc., Logan, UT, cat. SH30070.03HI), 389 ng/mL hydrocortisone (Sigma-Aldrich, cat. H4001), 9.7 ng/mL human EGF recombinant protein (Invitrogen, cat. PHG0313), 23.4 microg/mL adenine (Sigma-Aldrich, cat. A2786), 97.3 U/mL penicillin-streptomycin (Invitrogen, cat. 15140122), 1.9 mM L-glutamine (Invitrogen, cat. 25030081), and 9.7 microM Y-27632 dihydrochloride (Tocris Bioscience, Bristol, United Kingdom, cat. 1254). The PDCs were cultured in complete DMEM/F12 media without 10 microM Y-27632 dihydrochloride for at least two passages prior to the screen. The established cell lines NCI-H1341 and […] were cultured in DMEM/F-12, HEPES (Invitrogen, cat. 11330032), 5% defined fetal bovine serum (HyClone Laboratories Inc., cat. SH30070.03), ITS premix universal culture supplement [insulin (5 microg/mL), transferrin (5 microg/mL), and selenious acid (5 ng/mL)] […]
# [1] = curve of first compound, second compound 0.1 µM
# [2] = curve of first compound, second compound 0.316 µM
# [3] = curve of first compound, second compound 1 µM
# [4] = curve of first compound, second compound 3.16 µM
# [5] = curve of first compound, second compound 10 µM
# [6] = second compound 0.1 µM, first compound 0.000949 µM
# [7] = second compound 0.1 µM, first compound 0.003 µM
# [8] = second compound 0.1 µM, first compound 0.00949 µM
# [9] = second compound 0.1 µM, first compound 0.03 µM
# [10] = second compound 0.1 µM, first compound 0.0949 µM
# [11] = second compound 0.1 µM, first compound 0.3 µM
# [12] = second compound 0.316 µM, first compound 0.000949 µM
# [13] = second compound 0.316 µM, first compound 0.003 µM
# [14] = second compound 0.316 µM, first compound 0.00949 µM
# [15] = second compound 0.316 µM, first compound 0.03 µM
# [16] = second compound 0.316 µM, first compound 0.0949 µM
# [17] = second compound 0.316 µM, first compound 0.3 µM
# [18] = second compound 1 µM, first compound 0.000949 µM
# [19] = second compound 1 µM, first compound 0.003 µM
# [20] = second compound 1 µM, first compound 0.00949 µM
# [21] = second compound 1 µM, first compound 0.03 µM
# [22] = second compound 1 µM, first compound 0.0949 µM
# [23] = second compound 1 µM, first compound 0.3 µM
# [24] = second compound 3.16 µM, first compound 0.000949 µM
# [25] = second compound 3.16 µM, first compound 0.003 µM
# [26] = second compound 3.16 µM, first compound 0.00949 µM
# [27] = second compound 3.16 µM, first compound 0.03 µM
# [28] = second compound 3.16 µM, first compound 0.0949 µM
# [29] = second compound 3.16 µM, first compound 0.3 µM
# [30] = second compound 10 µM, first compound 0.000949 µM
# [31] = second compound 10 µM, first compound 0.003 µM
# [32] = second compound 10 µM, first compound 0.00949 µM
# [33] = second compound 10 µM, first compound 0.03 µM
# [34] = second compound 10 µM, first compound 0.0949 µM
# [35] = second compound 10 µM, first compound 0.3 µM
# 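Also: spheroids exposed to agents for 7 days before readout.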
# 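For viability, T/C in this document: 100% = DMSO vehicle control wells.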
smiles,measurement,setting,value
Cn1ncnc1C1c2n[nH]c(=O)c3cc(F)cc(c23)NC1c1ccc(F)cc1 (centres undefined) + Cc1cncc(-c2nc(NCCc3c[nH]c4ccccc34)c3ncn(C(C)C)c3n2)c1,IC50,[1],> 100 nM
same,IC50,[2],> 100 nM
same,IC50,[3],> 100 nM
same,IC50,[4],> 100 nM
same,IC50,[5],> 100 nM
same,"viability, T/C","second compound 0.1 µM, first compound 0.000316 µM",95.5%
same,"viability, T/C","second compound 0.1 µM, first compound 0.001 µM",104%
same,"viability, T/C","second compound 0.1 µM, first compound 0.00316 µM",90.8%
same,"viability, T/C","second compound 0.1 µM, first compound 0.01 µM",87.9%
same,"viability, T/C","second compound 0.1 µM, first compound 0.0316 µM",89.6%
same,"viability, T/C","second compound 0.1 µM, first compound 0.1 µM",98.8%
same,"viability, T/C","second compound 0.316 µM, first compound 0.000316 µM",88.8%
same,"viability, T/C","second compound 0.316 µM, first compound 0.001 µM",91.8%
same,"viability, T/C","second compound 0.316 µM, first compound 0.00316 µM",96.1%
same,"viability, T/C","second compound 0.316 µM, first compound 0.01 µM",96.2%
same,"viability, T/C","second compound 0.316 µM, first compound 0.0316 µM",93.3%
same,"viability, T/C","second compound 0.316 µM, first compound 0.1 µM",95.7%
same,"viability, T/C","second compound 1 µM, first compound 0.000316 µM",103%
same,"viability, T/C","second compound 1 µM, first compound 0.001 µM",96%
same,"viability, T/C","second compound 1 µM, first compound 0.00316 µM",97%
same,"viability, T/C","second compound 1 µM, first compound 0.01 µM",101%
same,"viability, T/C","second compound 1 µM, first compound 0.0316 µM",96.7%
same,"viability, T/C","second compound 1 µM, first compound 0.1 µM",88.2%
same,"viability, T/C","second compound 3.16 µM, first compound 0.000316 µM",121%
same,"viability, T/C","second compound 3.16 µM, first compound 0.001 µM",102%
same,"viability, T/C","second compound 3.16 µM, first compound 0.00316 µM",99.2%
same,"viability, T/C","second compound 3.16 µM, first compound 0.01 µM",114%
same,"viability, T/C","second compound 3.16 µM, first compound 0.0316 µM",99.3%
same,"viability, T/C","second compound 3.16 µM, first compound 0.1 µM",94.5%
same,"viability, T/C","second compound 10 µM, first compound 0.000316 µM",128%
same,"viability, T/C","second compound 10 µM, first compound 0.001 µM",117%
same,"viability, T/C","second compound 10 µM, first compound 0.00316 µM",139%
same,"viability, T/C","second compound 10 µM, first compound 0.01 µM",121%
same,"viability, T/C","second compound 10 µM, first compound 0.0316 µM",111%
same,"viability, T/C","second compound 10 µM, first compound 0.1 µM",131%
CCc1c2c(nc3ccc(O)cc13)-c1cc3c(c(=O)n1C2)COC(=O)[C@]3(O)CC + Cc1cncc(-c2nc(NCCc3c[nH]c4ccccc34)c3ncn(C(C)C)c3n2)c1,IC50,[1],> 300 nM
same,IC50,[2],> 300 nM
same,IC50,[3],> 300 nM
same,IC50,[4],> 300 nM
same,IC50,[5],> 300 nM
same,"viability, T/C",[6],106%
same,"viability, T/C",[7],103%
same,"viability, T/C",[8],97.1%
same,"viability, T/C",[9],89.1%
same,"viability, T/C",[10],79.4%
same,"viability, T/C",[11],76.6%
same,"viability, T/C",[12],98.8%
same,"viability, T/C",[13],95%
same,"viability, T/C",[14],98.5%
same,"viability, T/C",[15],82.2%
same,"viability, T/C",[16],69.5%
same,"viability, T/C",[17],64.6%
same,"viability, T/C",[18],102%
same,"viability, T/C",[19],106%
same,"viability, T/C",[20],110%
same,"viability, T/C",[21],79.9%
same,"viability, T/C",[22],94.8%
same,"viability, T/C",[23],66.6%
same,"viability, T/C",[24],113%
same,"viability, T/C",[25],102%
same,"viability, T/C",[26],98.6%
same,"viability, T/C",[27],80.7%
same,"viability, T/C",[28],73.1%
same,"viability, T/C",[29],73.9%
same,"viability, T/C",[30],131%
same,"viability, T/C",[31],135%
same,"viability, T/C",[32],128%
same,"viability, T/C",[33],102%
same,"viability, T/C",[34],95%
same,"viability, T/C",[35],68.4%
CC1(C)CCC(CN2CCN(c3ccc(C(=O)NS(=O)(=O)c4ccc(NCC5CCOCC5)c([N+](=O)[O-])c4)c(Oc4cnc5[nH]ccc5c4)c3)CC2)=C(c2ccc(Cl)cc2)C1,"viability, T/C",compound 0.0316 µM,109% and 96.8% and 101%
same,"viability, T/C",compound 0.1 µM,112% and 106% and 103%
same,"viability, T/C",compound 0.316 µM,112% (2×) and 103%
same,"viability, T/C",compound 1 µM,109% and 106% (2×)
same,"viability, T/C",compound 3.16 µM,120% and 117% and 108%
same,"viability, T/C",compound 10 µM,117% and 96.9% and 109%
same,IC50,curve of compound,> 10000 nM
COc1ccc([C@@H](O)c2cc(-c3ncnc4cc(N5CCOCC5)ccc34)c(F)cc2Cl)nn1,"viability, T/C",compound 0.0316 µM,107% and 116% and 95%
same,"viability, T/C",compound 0.1 µM,105% and 102% and 106%
same,"viability, T/C",compound 0.316 µM,94.2% and 93.8% and 101%
same,"viability, T/C",compound 1 µM,93.3% and 90.2% and 84.6%
same,"viability, T/C",compound 3.16 µM,65% and 45.8% and 61.5%
same,"viability, T/C",compound 10 µM,46.3% and 26% and 26.9%
same,IC50,curve of compound,7940 nM and 3030 nM and 4530 nM
CC(C)CC(NC(=O)C(Cc1ccccc1)NC(=O)c1cnccn1)B(O)O (centres undefined) + Cc1cncc(-c2nc(NCCc3c[nH]c4ccccc34)c3ncn(C(C)C)c3n2)c1,IC50,[1],49.3 nM
same,IC50,[2],27.2 nM
same,IC50,[3],21 nM
same,IC50,[4],20.9 nM
same,IC50,[5],13.9 nM
same,"viability, T/C",[6],94.6%
same,"viability, T/C",[7],96.3%
same,"viability, T/C",[8],106%
same,"viability, T/C",[9],75.8%
same,"viability, T/C",[10],16.6%
same,"viability, T/C",[11],11.4%
same,"viability, T/C",[12],98.8%
same,"viability, T/C",[13],96.9%
same,"viability, T/C",[14],108%
same,"viability, T/C",[15],45.2%
same,"viability, T/C",[16],18.4%
same,"viability, T/C",[17],10.7%
same,"viability, T/C",[18],99.8%
same,"viability, T/C",[19],103%
same,"viability, T/C",[20],93%
same,"viability, T/C",[21],30.3%
same,"viability, T/C",[22],17.6%
same,"viability, T/C",[23],8.63%
same,"viability, T/C",[24],107%
same,"viability, T/C",[25],107%
same,"viability, T/C",[26],102%
same,"viability, T/C",[27],25.9%
same,"viability, T/C",[28],13.1%
same,"viability, T/C",[29],4.96%
same,"viability, T/C",[30],124%
same,"viability, T/C",[31],113%
same,"viability, T/C",[32],73.2%
same,"viability, T/C",[33],2.6%
same,"viability, T/C",[34],1.14%
same,"viability, T/C",[35],0.75%

# Reference: PubChem BioAssay AID1919002 (Molecular Pharmacology Branch, DTP, NCI, 2023)
